Experimental data from patent US20240279205A1, “NOVEL BENZIMIDAZOLE DERIVATIVE” (Carna Biosciences, Inc., priority 2020, published 2024).
Where a name gives a salt, the structure may show the parent alone.

Legend:
[1] = biological target: T1, human STING (hSTING) (Homo sapiens, UniProt Q86WV6); assay: Inhibition test of intracellular human STING (hSTING) pathway using SEAP reporter cells (HEK-Blue ISG), stimulation with Compound 3; assay type: cell-based; set-up: hSTING inhibitory activity: scale not given here; conditions: Compound 3 10 nM stimulation, 21 hours
T1 construct: host or cells: HEK-Blue ISG cells (HEK293-derived SEAP reporter line)
How it was run: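 HEK-Blue ISG cells with IRF-inducible SEAP reporter, pretreated 1 h with compound (final 0.1 to 10 μM), then stimulated with Compound 3 (final 10 nM) for 21 h at 37° C. Supernatant SEAP measured colorimetrically; IC50 from log-concentration regression, normalized to stimulated (100%) and unstimulated (0%) controls.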

[2] = tested on: STING activation (IFN-β production in THP-1 cells); assay: Human IFN-β production inhibition test by cGAMP stimulation in THP-1 cells; assay type: cell-based; set-up: IFN-β bioinhibitory activity: scale not given here; conditions: 2'3'-cGAMP transfection, 18 hours, IFN-β ELISA; for IC50: Homo sapiens, read-out: IFN-β bioinhibitory activity
How it was run: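 PMA-primed (100 nM, overnight) THP-1 cells pretreated 1 h with compound at 0.001 to 1 μM (0.1% DMSO), then transfected with 0.12 μg/well 2′3′-cGAMP and cultured 18 hours. Supernatant IFN-β measured by ELISA; IC50 by regression against log concentration, normalised to cGAMP-only (100%) and unstimulated (0%) controls.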

T1 sequence (Q86WV6 whole entry H232R): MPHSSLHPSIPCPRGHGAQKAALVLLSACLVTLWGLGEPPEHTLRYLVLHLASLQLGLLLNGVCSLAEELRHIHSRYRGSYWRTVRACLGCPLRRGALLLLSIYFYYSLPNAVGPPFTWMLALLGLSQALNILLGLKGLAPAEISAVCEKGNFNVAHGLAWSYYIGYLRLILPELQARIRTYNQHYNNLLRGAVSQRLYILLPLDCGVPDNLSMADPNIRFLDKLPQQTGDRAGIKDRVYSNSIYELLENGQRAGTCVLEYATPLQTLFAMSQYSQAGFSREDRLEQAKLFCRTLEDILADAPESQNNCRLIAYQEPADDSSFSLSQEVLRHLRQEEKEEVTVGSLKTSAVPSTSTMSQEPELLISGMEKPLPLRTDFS

hSTING inhibitory activity [1] | IC50 [2] [nM] | SMILES | IFN-β bioinhibitory activity [2]
* * | 100 to 1000 | COc1ccc2[nH]c(Nc3c[nH]c4ccc(Br)cc34)nc2c1 [Example 6, N-(5-bromo-1H-indol-3-yl)-5-methoxy-1H-benzo[d]imidazol-2-amine] | –
* * | 100 to 1000 | CN(C)c1ccc(Oc2ccc3[nH]c(Nc4c[nH]c5ccc(Br)nc45)nc3c2)cc1 [Embodiment 64, N-(5-bromo-1H-pyrrolo[3,2-b]pyridin-3-yl)-5-[4-(dimethylamino)phenoxy]-1H-benzo[d]imidazol-2-amine] | –
* * | ≥ 1000 | Clc1cc(Cl)c2nc(Nc3c[nH]c4ccc(Cl)nc34)[nH]c2c1 [Embodiment 84, 4,6-dichloro-N-(5-chloro-1H-pyrrolo[3,2-b]pyridin-3-yl)-1H-benzo[d]imidazol-2-amine] | –
* * * | – | C=C(C)c1ccc2[nH]c(Nc3c[nH]c4ccc(Cl)nc34)nc2c1 [Embodiment 100, N-(5-chloro-1H-pyrrolo[3,2-b]pyridin-3-yl)-5-(prop-1-en-2-yl)-1H-benzo[d]imidazole-2-amine] | * * *
* * | ≥ 1000 | COc1ccnc2c(Nc3nc4cc(Oc5ccccc5)ccc4[nH]3)c[nH]c12 [Embodiment 77, N-(7-Methoxy-1H-pyrrolo[3,2-b]pyridin-3-yl)-5-phenoxy-1H-benzo[d]imidazol-2-amine formate] | –
* * | – | CN(C)c1cccc(Oc2ccc3[nH]c(Nc4c[nH]c5ccc(Br)cc45)nc3c2)c1 [Example 26, N-(5-bromo-1H-indol-3-yl)-5-[3-(dimethylamino)phenoxy]-1H-benzo[d]imidazol-2-amine] | * *
* * * | 100 to 1000 | Clc1ccc2[nH]cc(Nc3nc4cc(Oc5ccccc5)ccc4n3C3CC3)c2n1 [Embodiment 118, N-(5-Chloro-1H-pyrrolo[3,2-b]pyridin-3-yl)-1-cyclopropyl-5-phenoxy-1H-benzo[d]imidazol-2-amine] | –
* * * | 100 to 1000 | Fc1cc2nc(Nc3c[nH]c4ccc(Cl)nc34)[nH]c2cc1C(F)(F)F [Embodiment 160, N-(5-Chloro-1H-pyrrolo[3,2-b]pyridin-3-yl)-5-fluoro-6-(trifluoromethyl)-1H-benzo[d]imidazol-2-amine] | –
* * | ≥ 1000 | N#Cc1ccc2[nH]cc(Nc3nc4cc(Oc5ccccc5)ccc4[nH]3)c2n1 [Embodiment 130, 3-[(5-phenoxy-1H-benzo[d]imidazol-2-yl)amino]-1H-pyrrolo[3,2-b] pyridine-5-carbonitrile] | –
* * * | 100 to 1000 | FC(F)(F)c1cccc2[nH]c(Nc3c[nH]c4ccc(Br)nc34)nc12 [Embodiment 89, N-(5-bromo-1H-pyrrolo[3,2-b]pyridin-3-yl)-4-(trifluoromethyl)-1H-benzo[d]imidazol-2-amine] | –
* * | 100 to 1000 | Cc1cc2nc(Nc3c[nH]c4ccc(Br)nc34)[nH]c2cc1C [Embodiment 79, N-(5-bromo-1H-pyrrolo[3,2-b]pyridin-3-yl)-5,6-dimethyl-1H-benzo[d]imidazol-2-amine] | –
* * | 100 to 1000 | Cn1c(Nc2c[nH]c3ccc(Cl)nc23)nc2c(N3CCCCC3)cccc21 [Embodiment 157, N-(5-chloro-1H-pyrrolo[3,2-b]pyridin-3-yl)-1-methyl-4-(piperidin-1-yl)-1H-benzo[d]imidazole-2-amine formate] | –
* * | – | Clc1ccc2[nH]c(Nc3c[nH]c4ccc(Br)nc34)nc2c1 [Embodiment 32, N-(5-bromo-1H-pyrrolo[3,2-b]pyridin-3-yl)-5-chloro-1H-benzo[d]imidazol-2-amine] | * *
* * * | 100 to 1000 | Clc1cnc2[nH]cc(Nc3nc4cc(Oc5ccccc5)ccc4[nH]3)c2c1 [Embodiment 73, N-(5-Chloro-1H-pyrrolo[2,3-b]pyridin-3-yl)-5-phenoxy-1H-benzo[d]imidazol-2-amine formate] | –

Further lines, the compound ahead of its results:

SMILES | hSTING inhibitory activity [1] | IC50 [2] [nM] | IFN-β bioinhibitory activity [2]
C#CCn1c(Nc2c[nH]c3ccc(Cl)cc23)nc2cc(OC(F)(F)F)ccc21 [Embodiment 253, N-(5-Chloro-1H-indol-3-yl)-1-(prop-2-yn-1-yl)-5-(trifluoromethoxy)-1H-benzo[d]imidazole-2-amine] | * * * | – | * *
Cn1c(Nc2c[nH]c3cc(F)c(F)cc23)nc2cc(C(F)(F)F)cc(F)c21 [Embodiment 261, N-(5,6-difluoro-1H-indol-3-yl)-7-fluoro-1-methyl-5-(trifluoromethyl)-1H-benzo[d]imidazol-2-amine] | * * * | – | * *
CN(C)n1c(Nc2c[nH]c3ccc(Cl)cc23)nc2cc(C(F)(F)F)ccc21 [Embodiment 216, N2-(5-Chloro-1H-indol-3-yl)-N1,N1-dimethyl-5-(trifluoromethyl)-1H-benzo[d]imidazole-1,2-diamine] | * * * | – | * * *
C=CCn1c(Nc2c[nH]c3ccc(Cl)cc23)nc2cc(C(F)(F)F)ccc21 [Embodiment 213, 1-allyl-N-(5-chloro-1H-indol-3-yl)-5-(trifluoromethyl)-1H-benzo[d]imidazol-2-amine] | * * * | – | * *
Cn1c(Nc2c[nH]c3ccc(C#N)cc23)nc2cc(C(F)(F)F)cc(F)c21 [Embodiment 257, 3-{ [7-fluoro-1-methyl-5-(trifluoro methyl)-1H-benzo[d]imidazol-2-yl]amino}-1H-indole-5-carbonitrile] | * * * | – | * *
FC(F)(F)c1ccc2c(c1)nc(Nc1c[nH]c3ccc(I)cc13)n2C1CC1 [Embodiment 232, 1-Cyclopropyl-N-(5-iodo-1H-indol-3-yl)-5-(trifluoromethyl)-1H-benzo[d]imidazol-2-amine] | * * | – | * *
C#CCn1c(Nc2c[nH]c3ccc(Cl)cc23)nc2cc(C(F)(F)F)ccc21 [Embodiment 214, N-(5-Chloro-1H-indol-3-yl)-1-(pro-2-yl)-5-(trifluoromethyl)-1H-benzo[d]imidazol-2-amine] | * * * | – | * * *
OCCn1c(Nc2c[nH]c3ccc(Cl)cc23)nc2cc(C(F)(F)F)ccc21 [Embodiment 223, 2-{2-[(5-chloro-1H-indol-3-yl)amino]-5-(trifluoromethyl)-1H-benzo[d]imidazol-1-yl}ethanol] | * * * | – | * *
CCCn1c(Nc2c[nH]c3ccc(Cl)cc23)nc2cc(OC(F)(F)F)ccc21 [Embodiment 244, N-(5-Chloro-1H-indol-3-yl)-1-propyl-5-(trifluoromethoxy)-1H-benzo [d]imidazol-2-amine] | * * * | – | * *
CCn1c(Nc2c[nH]c3ccc(Cl)cc23)nc2cc(C(F)(F)F)ccc21 [Embodiment 217, N-(5-Chloro-1H-indol-3-yl)-1-ethyl-5-(trifluoromethyl)-1H-benzo[d]imidazol-2-amine] | * * * | – | * *
